Data published in patent US8940742B2, “Heterocyclic compounds and uses thereof” (Infinity Pharmaceuticals, Inc., priority 2012, dated 2015).

Legend:
RAJI p110 δ = RAJI p110 δ (Homo sapiens, UniProt O00329); assay: RAJI p110 δ cellular assay (phospho-AKT);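 further: potency based on lowered phosphorylated AKT in RAJI cells, as a readout of PI3K-δ dependent B-cell receptor signaling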
From the text: (a) PI3K-δ Selective Assay
Reduction of phospho-AKT is indicative of compounds that may inhibit B-cell proliferation and function in certain diseases.

Raw264.7 p110 γ = target: T1, Raw264.7 p110 γ (Mus musculus, UniProt Q9JHG7); assay: Raw264.7 p110 γ cellular assay (phospho-AKT); type: cell-based; details: serum-starved RAW264.7 cells stimulated with C5a
T1 construct: reduction of phospho-AKT in stimulated RAW 264.7 cells; endogenous in cells; host or cells: RAW264.7 macrophages
T1 sequence (Q9JHG7 whole entry): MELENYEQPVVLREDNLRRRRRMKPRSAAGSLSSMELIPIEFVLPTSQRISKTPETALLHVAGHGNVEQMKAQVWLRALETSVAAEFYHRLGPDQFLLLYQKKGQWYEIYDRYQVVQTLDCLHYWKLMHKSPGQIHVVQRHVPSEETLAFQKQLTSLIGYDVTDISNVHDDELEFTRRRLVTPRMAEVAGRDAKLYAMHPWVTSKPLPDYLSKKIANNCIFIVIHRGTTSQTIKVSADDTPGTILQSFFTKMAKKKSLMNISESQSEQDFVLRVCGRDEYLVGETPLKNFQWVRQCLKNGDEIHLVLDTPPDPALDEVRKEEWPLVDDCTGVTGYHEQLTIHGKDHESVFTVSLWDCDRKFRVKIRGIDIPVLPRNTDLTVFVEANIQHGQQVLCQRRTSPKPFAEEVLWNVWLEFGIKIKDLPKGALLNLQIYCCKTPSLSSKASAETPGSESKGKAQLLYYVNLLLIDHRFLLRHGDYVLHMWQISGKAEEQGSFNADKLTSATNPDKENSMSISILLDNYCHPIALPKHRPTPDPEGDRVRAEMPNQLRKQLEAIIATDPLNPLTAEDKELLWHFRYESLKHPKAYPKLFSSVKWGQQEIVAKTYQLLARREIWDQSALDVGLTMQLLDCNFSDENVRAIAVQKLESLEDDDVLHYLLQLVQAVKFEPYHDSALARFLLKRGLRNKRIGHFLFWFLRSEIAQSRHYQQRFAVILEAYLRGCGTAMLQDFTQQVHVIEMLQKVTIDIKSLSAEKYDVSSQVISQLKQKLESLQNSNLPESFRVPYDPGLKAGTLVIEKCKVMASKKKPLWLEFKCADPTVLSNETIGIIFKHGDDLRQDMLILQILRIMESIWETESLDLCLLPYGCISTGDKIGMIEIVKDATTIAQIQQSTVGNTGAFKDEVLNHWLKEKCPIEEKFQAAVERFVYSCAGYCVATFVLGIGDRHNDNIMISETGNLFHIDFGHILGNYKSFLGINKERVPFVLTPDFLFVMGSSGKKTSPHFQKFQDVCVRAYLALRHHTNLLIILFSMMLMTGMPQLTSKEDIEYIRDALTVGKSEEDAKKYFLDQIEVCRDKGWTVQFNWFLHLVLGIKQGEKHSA
From the text: (b) PI3K-γ Selective Assay
Briefly, serum-starved PAW264.7 cells are stimulated with a known GPCR agonist C5a. […] Cells can be treated with test compounds prior to, simultaneously with, or subsequent to the stimulation by C5a. RAW 264.7 cells respond to the complement component fragment C5a through activation of the C5a receptor, and the C5a receptor activates macrophages and induces cell migration.

PI3K α = target: T2, PI3K α (Homo sapiens, UniProt P42336); assay: PI3-Kinase Promega ADP-Glo Max assay; type: biochemical; details: 20 nM kinase, 3 mM ATP, 500 uM diC8-PtdInsP
T2 construct: purchased Millipore
T2 sequence (P42336 whole entry): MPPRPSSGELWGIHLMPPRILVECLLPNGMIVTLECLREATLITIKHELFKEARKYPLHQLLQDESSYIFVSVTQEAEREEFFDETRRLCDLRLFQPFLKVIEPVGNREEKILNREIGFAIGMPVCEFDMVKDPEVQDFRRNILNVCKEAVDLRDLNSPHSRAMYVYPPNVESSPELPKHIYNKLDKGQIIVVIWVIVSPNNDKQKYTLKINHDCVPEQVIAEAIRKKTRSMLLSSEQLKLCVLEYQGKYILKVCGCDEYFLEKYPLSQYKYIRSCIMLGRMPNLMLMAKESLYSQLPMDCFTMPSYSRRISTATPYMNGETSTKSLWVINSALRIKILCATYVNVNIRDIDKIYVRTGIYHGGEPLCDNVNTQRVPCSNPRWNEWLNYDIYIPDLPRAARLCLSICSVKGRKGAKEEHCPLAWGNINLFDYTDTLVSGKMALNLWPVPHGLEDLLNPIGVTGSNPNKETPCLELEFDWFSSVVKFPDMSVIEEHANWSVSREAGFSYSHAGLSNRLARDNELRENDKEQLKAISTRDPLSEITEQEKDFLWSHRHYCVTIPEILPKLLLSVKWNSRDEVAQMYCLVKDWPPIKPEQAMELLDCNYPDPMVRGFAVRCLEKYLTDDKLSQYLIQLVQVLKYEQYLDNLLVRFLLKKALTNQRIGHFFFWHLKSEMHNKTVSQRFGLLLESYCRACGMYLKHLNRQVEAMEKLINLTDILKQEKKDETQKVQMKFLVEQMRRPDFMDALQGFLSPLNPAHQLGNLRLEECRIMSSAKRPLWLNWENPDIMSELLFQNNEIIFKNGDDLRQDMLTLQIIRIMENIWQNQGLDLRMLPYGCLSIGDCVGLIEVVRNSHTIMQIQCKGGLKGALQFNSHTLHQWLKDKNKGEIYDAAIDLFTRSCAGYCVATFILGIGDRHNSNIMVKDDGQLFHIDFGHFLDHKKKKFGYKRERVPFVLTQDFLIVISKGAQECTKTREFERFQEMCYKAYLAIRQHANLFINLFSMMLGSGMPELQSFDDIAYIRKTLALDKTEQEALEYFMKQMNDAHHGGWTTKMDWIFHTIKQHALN
T2 sequence (P27986 whole entry partner): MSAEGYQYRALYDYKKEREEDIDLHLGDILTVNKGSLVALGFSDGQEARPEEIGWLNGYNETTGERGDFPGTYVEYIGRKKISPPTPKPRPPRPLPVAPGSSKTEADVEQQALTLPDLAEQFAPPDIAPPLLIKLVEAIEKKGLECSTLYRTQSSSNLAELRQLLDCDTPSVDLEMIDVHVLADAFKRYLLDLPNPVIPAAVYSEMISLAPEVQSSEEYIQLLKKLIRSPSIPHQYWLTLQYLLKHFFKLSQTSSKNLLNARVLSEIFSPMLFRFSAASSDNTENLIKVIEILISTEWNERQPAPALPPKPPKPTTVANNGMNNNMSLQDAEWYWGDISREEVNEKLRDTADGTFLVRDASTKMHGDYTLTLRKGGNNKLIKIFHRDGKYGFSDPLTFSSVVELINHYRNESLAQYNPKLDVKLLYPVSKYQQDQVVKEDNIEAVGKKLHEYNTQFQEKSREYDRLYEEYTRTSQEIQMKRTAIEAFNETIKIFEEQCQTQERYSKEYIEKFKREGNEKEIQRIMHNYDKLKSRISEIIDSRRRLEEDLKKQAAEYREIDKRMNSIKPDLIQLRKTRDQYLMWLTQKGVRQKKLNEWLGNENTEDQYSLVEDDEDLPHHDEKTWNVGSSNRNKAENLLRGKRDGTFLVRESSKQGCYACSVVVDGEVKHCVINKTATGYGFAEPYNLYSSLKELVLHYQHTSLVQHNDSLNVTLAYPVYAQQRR
Protocol: (§1) Promega ADP-Glo Max assay kit (Cat. No. V7002) was utilized to determine IC50 values for α, β, δ and γ isoforms of human Class I PI3 kinases (Millipore). Samples of kinase (20 nM α or δ, 40 nM β or γ isoform) were incubated with compound for 15 minutes at room temperature in reaction buffer (15 mM HEPES pH 7.4, 20 mM NaCl, 1 mM EGTA, 0.02% Tween 20, 10 mM MgCl2, 0.2 mg/mL bovine-γ-globulins) followed by addition of ATP/diC8-PtdInsP mixture to give final concentrations of 3 mM ATP and 500 uM diC8-PtdInsP. Reactions were incubated at room temperature for 2 hours followed by addition of 25 uL of stop solution. After a 40-minute incubation at room temperature, 50 uL of Promega detection mix was added followed by incubation for 1 hour at room temperature. Plates were then read on Envision plate reader in luminescence mode. Data was converted to % inhibition using the following equation below:
(§2) [formula] where S is the sample luminescence, Pos is a positive control without added PI3K, Neg is the negative control without added compound. Data was then plotted as % inhibition vs compound concentration. Data fit to 4 parameter logistic equation to determine IC50 values: […]
(§3) Certain compounds provided herein were tested in PI3-Kinase Promega Assay using procedures as described above to determine IC50 values for α, β, δ and/or γ isoforms.

PI3K β = target: T3, PI3K β (Homo sapiens, UniProt P42338); assay: PI3-Kinase Promega ADP-Glo Max assay; type: biochemical; details: 40 nM kinase, 3 mM ATP, 500 uM diC8-PtdInsP
T3 construct: purchased Millipore
T3 sequence (P42338 whole entry): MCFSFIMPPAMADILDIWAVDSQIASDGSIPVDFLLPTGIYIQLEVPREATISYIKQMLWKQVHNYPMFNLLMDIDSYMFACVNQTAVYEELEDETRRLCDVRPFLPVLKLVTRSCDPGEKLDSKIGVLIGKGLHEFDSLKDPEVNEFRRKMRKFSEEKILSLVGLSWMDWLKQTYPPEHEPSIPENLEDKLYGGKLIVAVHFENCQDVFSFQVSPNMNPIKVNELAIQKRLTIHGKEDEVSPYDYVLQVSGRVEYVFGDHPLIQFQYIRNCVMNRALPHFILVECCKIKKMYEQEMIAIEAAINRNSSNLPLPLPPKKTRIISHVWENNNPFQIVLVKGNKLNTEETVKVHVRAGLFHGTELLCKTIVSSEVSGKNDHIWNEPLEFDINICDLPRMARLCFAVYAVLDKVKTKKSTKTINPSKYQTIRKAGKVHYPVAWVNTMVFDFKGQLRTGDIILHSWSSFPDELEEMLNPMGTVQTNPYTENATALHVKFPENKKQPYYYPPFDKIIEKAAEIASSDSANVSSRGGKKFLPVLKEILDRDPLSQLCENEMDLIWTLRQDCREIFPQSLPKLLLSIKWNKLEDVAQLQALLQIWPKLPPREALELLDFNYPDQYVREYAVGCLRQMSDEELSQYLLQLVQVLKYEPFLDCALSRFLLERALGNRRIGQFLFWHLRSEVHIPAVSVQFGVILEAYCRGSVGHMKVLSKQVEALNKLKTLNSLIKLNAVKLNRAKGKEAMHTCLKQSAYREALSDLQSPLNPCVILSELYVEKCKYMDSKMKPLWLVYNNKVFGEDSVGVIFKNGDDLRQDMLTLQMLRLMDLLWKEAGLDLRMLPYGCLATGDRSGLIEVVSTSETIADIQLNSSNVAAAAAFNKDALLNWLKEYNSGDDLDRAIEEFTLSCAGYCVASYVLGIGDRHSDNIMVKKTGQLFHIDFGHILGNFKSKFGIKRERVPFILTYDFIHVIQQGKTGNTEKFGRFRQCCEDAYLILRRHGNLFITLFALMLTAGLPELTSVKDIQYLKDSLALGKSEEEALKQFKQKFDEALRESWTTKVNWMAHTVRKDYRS
T3 sequence (P27986 whole entry partner): as the sequence (P27986 whole entry partner) above
Protocol: as §1, §2, §3

PI3K δ = target: T4, PI3K δ (Homo sapiens, UniProt O00329); assay: PI3-Kinase Promega ADP-Glo Max assay; type: biochemical; details: 20 nM kinase, 3 mM ATP, 500 uM diC8-PtdInsP
T4 construct: purchased Millipore
Protocol: as §1, §2, §3

PI3K γ = target: T5, PI3K γ (Homo sapiens, UniProt P48736); assay: PI3-Kinase Promega ADP-Glo Max assay; type: biochemical; details: 40 nM kinase, 3 mM ATP, 500 uM diC8-PtdInsP
T5 construct: purchased Millipore
T5 sequence (P48736 whole entry): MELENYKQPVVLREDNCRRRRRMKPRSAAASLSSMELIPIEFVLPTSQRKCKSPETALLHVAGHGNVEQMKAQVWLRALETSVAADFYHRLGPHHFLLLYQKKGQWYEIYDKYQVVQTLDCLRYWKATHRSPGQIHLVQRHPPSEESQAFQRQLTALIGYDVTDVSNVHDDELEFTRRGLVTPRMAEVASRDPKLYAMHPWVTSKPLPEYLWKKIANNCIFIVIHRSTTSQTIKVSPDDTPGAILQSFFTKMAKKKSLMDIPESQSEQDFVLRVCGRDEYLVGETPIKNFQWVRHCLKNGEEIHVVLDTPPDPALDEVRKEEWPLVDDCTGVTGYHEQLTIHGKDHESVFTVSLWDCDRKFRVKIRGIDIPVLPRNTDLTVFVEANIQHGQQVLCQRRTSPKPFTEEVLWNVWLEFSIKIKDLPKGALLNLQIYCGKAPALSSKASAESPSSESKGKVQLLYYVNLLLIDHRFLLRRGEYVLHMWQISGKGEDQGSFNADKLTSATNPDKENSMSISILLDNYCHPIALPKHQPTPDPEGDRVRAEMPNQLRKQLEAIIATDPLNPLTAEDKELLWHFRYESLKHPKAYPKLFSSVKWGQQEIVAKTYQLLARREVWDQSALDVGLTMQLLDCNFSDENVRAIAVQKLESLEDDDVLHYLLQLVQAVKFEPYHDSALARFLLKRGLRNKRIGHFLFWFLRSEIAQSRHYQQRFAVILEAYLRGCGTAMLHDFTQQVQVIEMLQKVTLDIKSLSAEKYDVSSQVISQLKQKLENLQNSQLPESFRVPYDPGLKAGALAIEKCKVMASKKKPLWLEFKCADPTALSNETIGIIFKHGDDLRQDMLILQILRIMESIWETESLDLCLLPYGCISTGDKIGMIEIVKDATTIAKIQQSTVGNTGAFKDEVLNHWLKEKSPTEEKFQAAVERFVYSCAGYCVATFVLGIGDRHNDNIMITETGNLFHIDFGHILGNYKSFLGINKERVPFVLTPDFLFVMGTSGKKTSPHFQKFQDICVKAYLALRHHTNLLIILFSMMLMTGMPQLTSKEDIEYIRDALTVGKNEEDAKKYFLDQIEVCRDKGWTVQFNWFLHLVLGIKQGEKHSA
Protocol: Promega ADP-Glo Max assay kit (Cat. No. V7002) was utilized to determine IC50 values for α, β, δ and γ isoforms of human Class I PI3 kinases (Millipore). […] Reactions were incubated at room temperature for 2 hours followed by addition of 25 uL of stop solution. After a 40-minute incubation at room temperature, 50 uL of Promega detection mix was added followed by incubation for 1 hour at room temperature. Plates were then read on Envision plate reader in luminescence mode. Data was converted to % inhibition using the following equation below:
[formula] where S is the sample luminescence, Pos is a positive control without added PI3K, Neg is the negative control without added compound. Data was then plotted as % inhibition vs compound concentration.
as §3

`C[C@H](NC(=O)c1nc(-c2cccc(NS(C)(=O)=O)c2)cnc1N)c1cc2cccc(Cl)c2c(=O)n1C1CC1` [Compound 171] was tested. Which IC50 (RAJI p110 δ) did it give?
Its IC50 is under 100 nM.

And the IC50 (Raw264.7 p110 γ)?
Its IC50 is under 100 nM.

What about the IC50 (PI3K α) of the same compound?
Its IC50 is 1000 to 10000 nM.

What about the IC50 (PI3K β) of the same compound?
The IC50 was 100 to 1000 nM.

What about the IC50 (PI3K δ) of the same compound?
The IC50 was 1000 to 10000 nM.

What about the IC50 (PI3K γ) of the same compound?
The IC50 was under 100 nM.

What does the source list for `CC(=O)Nc1ccc(-c2cccc3cc([C@H](C)NC(=O)c4c(N)nn5cccnc45)n(-c4ccccc4)c(=O)c23)cc1` [Compound 203]?
IC50 (RAJI p110 δ): < 100 nM; IC50 (Raw264.7 p110 γ): < 100 nM; IC50 (PI3K α): 1000 to 10000 nM; IC50 (PI3K β): > 10000 nM; IC50 (PI3K δ): 1000 to 10000 nM; IC50 (PI3K γ): 100 to 1000 nM

For `COc1ncc(-c2cccc3cc([C@H](C)NC(=O)c4c(N)nn5cccnc45)n(-c4ccccc4)c(=O)c23)cn1` [Compound 128], which IC50 (RAJI p110 δ) is on record?
Its IC50 is under 100 nM.

And the IC50 (Raw264.7 p110 γ)?
Its IC50 is under 100 nM.

What about the IC50 (PI3K α) of the same compound?
Its IC50 is 1000 to 10000 nM.

And the IC50 (PI3K β)?
Its IC50 is 1000 to 10000 nM.

And the IC50 (PI3K δ)?
Its IC50 is 1000 to 10000 nM.

What about the IC50 (PI3K γ) of the same compound?
The IC50 was 100 to 1000 nM.

For `C[C@H](NC(=O)c1nc(-c2cccc(NS(C)(=O)=O)c2)c(N)nc1N)c1cc2cccc(Cl)c2c(=O)n1-c1ccccc1` [Compound 169], which IC50 (RAJI p110 δ) is on record?
The IC50 was under 100 nM.

What about the IC50 (Raw264.7 p110 γ) of the same compound?
The IC50 was under 100 nM.

And the IC50 (PI3K α)?
The IC50 was under 100 nM.

And the IC50 (PI3K β)?
Its IC50 is under 100 nM.

What about the IC50 (PI3K δ) of the same compound?
The IC50 was 100 to 1000 nM.

What about the IC50 (PI3K γ) of the same compound?
The IC50 was under 100 nM.

`COc1cc(-c2cccc3cc([C@H](C)NC(=O)c4ncc(C)nc4N)n(-c4ccccc4)c(=O)c23)ccn1` [Compound 139] was tested. Which IC50 (RAJI p110 δ) did it give?
Its IC50 is 100 to 1000 nM.

And the IC50 (Raw264.7 p110 γ)?
Its IC50 is under 100 nM.

And the IC50 (PI3K α)?
The IC50 was over 10000 nM.

What about the IC50 (PI3K β) of the same compound?
Its IC50 is over 10000 nM.

What about the IC50 (PI3K δ) of the same compound?
The IC50 was 1000 to 10000 nM.

And the IC50 (PI3K γ)?
Its IC50 is 1000 to 10000 nM.

What does the source list for `C[C@H](NC(=O)c1nccnc1N)c1cc2cccc(-c3cc[nH]n3)c2c(=O)n1-c1ccccc1` [Compound 59]?
IC50 (RAJI p110 δ): < 100 nM; IC50 (Raw264.7 p110 γ): 1000 to 10000 nM; IC50 (PI3K α): > 10000 nM; IC50 (PI3K β): > 10000 nM; IC50 (PI3K δ): 100 to 1000 nM; IC50 (PI3K γ): 1000 to 10000 nM

For `C[C@H](NC(=O)c1c(N)nn2cccnc12)c1cc2cccc(C#CCNC(=O)C3CC(=O)CC(=O)C3)c2c(=O)n1-c1ccccc1` [Compound 156], which IC50 (RAJI p110 δ) is on record?
Its IC50 is 1000 to 10000 nM.

What about the IC50 (Raw264.7 p110 γ) of the same compound?
The IC50 was 100 to 1000 nM.

What about the IC50 (PI3K α) of the same compound?
The IC50 was 1000 to 10000 nM.

And the IC50 (PI3K β)?
The IC50 was 1000 to 10000 nM.

And the IC50 (PI3K δ)?
Its IC50 is 100 to 1000 nM.

What about the IC50 (PI3K γ) of the same compound?
Its IC50 is under 100 nM.

`C=CC(=O)NCCC#Cc1cccc2cc([C@H](C)NC(=O)c3c(N)nn4cccnc34)n(-c3ccccc3)c(=O)c12` [Compound 160] was tested. Which IC50 (RAJI p110 δ) did it give?
Its IC50 is under 100 nM.

What about the IC50 (Raw264.7 p110 γ) of the same compound?
The IC50 was under 100 nM.

And the IC50 (PI3K α)?
Its IC50 is 1000 to 10000 nM.

What about the IC50 (PI3K β) of the same compound?
Its IC50 is 1000 to 10000 nM.

And the IC50 (PI3K δ)?
Its IC50 is 1000 to 10000 nM.

And the IC50 (PI3K γ)?
The IC50 was 100 to 1000 nM.

With `C[C@H](NC(=O)c1c(N)nn2cccnc12)c1cc2cccc(-c3cnn(C)c3)c2c(=O)n1-c1ccccc1` [Compound 222] as the compound, how does the IC50 (RAJI p110 δ) read?
The IC50 was under 100 nM.

And the IC50 (Raw264.7 p110 γ)?
The IC50 was under 100 nM.

And the IC50 (PI3K α)?
The IC50 was over 10000 nM.

What about the IC50 (PI3K β) of the same compound?
Its IC50 is over 10000 nM.

And the IC50 (PI3K δ)?
Its IC50 is 1000 to 10000 nM.

And the IC50 (PI3K γ)?
The IC50 was 100 to 1000 nM.

What does the source list for `COc1cc(-c2cccc3nc([C@H](C)NC(=O)c4c(N)nn5cccnc45)n(-c4ccccc4)c(=O)c23)ccn1` [Compound 144]?
IC50 (RAJI p110 δ): < 100 nM; IC50 (Raw264.7 p110 γ): < 100 nM; IC50 (PI3K α): 100 to 1000 nM; IC50 (PI3K β): 1000 to 10000 nM; IC50 (PI3K δ): 100 to 1000 nM; IC50 (PI3K γ): < 100 nM

Which IC50 (RAJI p110 δ) does the source give for `C[C@H](NC(=O)c1nc(-c2cccc(NS(C)(=O)=O)c2)cnc1N)c1cc2cccc(Cl)c2c(=O)n1-c1ccccc1` [Compound 85] here?
The IC50 was under 100 nM.

And the IC50 (Raw264.7 p110 γ)?
Its IC50 is under 100 nM.

What about the IC50 (PI3K α) of the same compound?
The IC50 was 1000 to 10000 nM.

What about the IC50 (PI3K β) of the same compound?
The IC50 was 100 to 1000 nM.

What about the IC50 (PI3K δ) of the same compound?
The IC50 was 1000 to 10000 nM.

And the IC50 (PI3K γ)?
Its IC50 is under 100 nM.

With `C[C@H](NC(=O)c1c(N)nn2cccnc12)c1cc2cccc(C#CCN)c2c(=O)n1-c1ccccc1` [Compound 153] as the compound, how does the IC50 (RAJI p110 δ) read?
The IC50 was 100 to 1000 nM.

What about the IC50 (Raw264.7 p110 γ) of the same compound?
The IC50 was 100 to 1000 nM.

What about the IC50 (PI3K α) of the same compound?
Its IC50 is 1000 to 10000 nM.

And the IC50 (PI3K β)?
The IC50 was 1000 to 10000 nM.

What about the IC50 (PI3K δ) of the same compound?
The IC50 was 1000 to 10000 nM.

What about the IC50 (PI3K γ) of the same compound?
The IC50 was 100 to 1000 nM.

Which IC50 (RAJI p110 δ) does the source give for `C[C@H](NC(=O)c1nc(-c2ccc(NS(C)(=O)=O)cc2)cnc1N)c1cc2cccc(Cl)c2c(=O)n1-c1ccccc1` [Compound 103] here?
Its IC50 is 1000 to 10000 nM.

What about the IC50 (Raw264.7 p110 γ) of the same compound?
The IC50 was 100 to 1000 nM.

What about the IC50 (PI3K α) of the same compound?
Its IC50 is over 10000 nM.

What about the IC50 (PI3K β) of the same compound?
The IC50 was over 10000 nM.

And the IC50 (PI3K δ)?
Its IC50 is over 10000 nM.

What about the IC50 (PI3K γ) of the same compound?
The IC50 was 1000 to 10000 nM.

For `Cc1ccn2nc(N)c(C(=O)N[C@@H](C)c3cc4cccc(Cl)c4c(=O)n3-c3ccccc3)c2n1` [Compound 142], which IC50 (RAJI p110 δ) is on record?
The IC50 was under 100 nM.

And the IC50 (Raw264.7 p110 γ)?
The IC50 was under 100 nM.

And the IC50 (PI3K α)?
The IC50 was 1000 to 10000 nM.

What about the IC50 (PI3K β) of the same compound?
Its IC50 is under 100 nM.

And the IC50 (PI3K δ)?
The IC50 was 100 to 1000 nM.

And the IC50 (PI3K γ)?
Its IC50 is 100 to 1000 nM.
